# Data as given in US20150258107A1, “METHODS AND COMPOSITIONS FOR TREATING DEPRESSION” (DemeRx, Inc., priority 2014, published 2015).
# Like-named read-outs stand apart in the source and are kept apart here.
# Test: Plasma toxicokinetics in dogs, fourteen day repeat dose
# Assay type: in vivo, dog
# Method: Noribogaine HCl was administered to groups of 4 male and 4 female dogs by single oral gavage daily for 14 days at doses of 0, 0.5, 1.0 and 5.0 mg/kg/day. An additional group of 4 male and 4 female dogs received either the vehicle control or 5.0 mg/kg/day for 14 days and were held for an additional 28 days after cessation of dosing to assess recovery from any potential drug-induced changes. The study was conducted under GLP guidelines and included comprehensive examinations of clinical signs, body weight, clinical pathology parameters, ophthalmologic examinations, ECG recordings and analyses of plasma for bioanalytical measurement of drug levels at appropriate intervals during the study. At the termination of the dosing phase and at the termination of the recovery phase, all dogs were subjected to a complete post-mortem examination including gross examination of major organs and histologic examination of an extensive list of tissues. Additional sections of brain were obtained from cerebrum, cerebellus, brain stem and spinal cord and examined histologically to evaluate potential effects on brain histopathology. In addition, these sections were examined with immunohistochemical stains for GFAP for evidence of gliosis and Calbindin for a more comprehensive examination of cerebellar Purkinje cells.
# [1] = female, dog, plasma, po, 0.5 mg/kg, female dogs, Gr 2, 0.5 mg/kg, D1
# [2] = female, dog, plasma, po, 0.5 mg/kg, female dogs, Gr 2, 0.5 mg/kg, D14
# [3] = female, dog, plasma, po, 1 mg/kg, female dogs, Gr 3, 1.0 mg/kg, D1
# [4] = female, dog, plasma, po, 1 mg/kg, female dogs, Gr 3, 1.0 mg/kg, D14
# [5] = female, dog, plasma, po, 5 mg/kg, female dogs, Gr 4, 5.0 mg/kg, D1
# [6] = female, dog, plasma, po, 5 mg/kg, female dogs, Gr 4, 5.0 mg/kg, D14
# [7] = male, dog, plasma, po, 0.5 mg/kg, male dogs, Gr 2, 0.5 mg/kg, D1
# [8] = male, dog, plasma, po, 0.5 mg/kg, male dogs, Gr 2, 0.5 mg/kg, D14
# [9] = male, dog, plasma, po, 1 mg/kg, male dogs, Gr 3, 1.0 mg/kg, D1
# [10] = male, dog, plasma, po, 1 mg/kg, male dogs, Gr 3, 1.0 mg/kg, D14
# [11] = male, dog, plasma, po, 5 mg/kg, male dogs, Gr 4, 5.0 mg/kg, D1
# [12] = male, dog, plasma, po, 5 mg/kg, male dogs, Gr 4, 5.0 mg/kg, D14
smiles,measurement,setting,value
CC[C@H]1CC2C[C@H]3c4[nH]c5ccc(O)cc5c4CCN(C2)C13 [noribogaine],Cmax,"female dogs, Gr 4, 5.0 mg/kg, D1",691 ng/mL
same,Cmax,"female dogs, Gr 4, 5.0 mg/kg, D14",683 ng/mL
same,AUC(0-inf),[1],44.9 ng·h/mL
same,Tmax,[1],0.5 h
same,half-life,[1],1 h
same,AUC(0-t),"female, dog, plasma, po, 0.5 mg/kg, female dogs, Gr 2, 0.5 mg/kg, D1, read-out: AUC0-24 h",40.4 ng·h/mL
same,AUC(0-t),"female, dog, plasma, po, 0.5 mg/kg, female dogs, Gr 2, 0.5 mg/kg, D1, read-out: AUC0-last",31.5 ng·h/mL
same,AUC(0-inf),[2],45.7 ng·h/mL
same,Tmax,[2],1 h
same,half-life,[2],1.1 h
same,AUC(0-t),"female, dog, plasma, po, 0.5 mg/kg, female dogs, Gr 2, 0.5 mg/kg, D14, read-out: AUC0-24 h",55 ng·h/mL
same,AUC(0-t),"female, dog, plasma, po, 0.5 mg/kg, female dogs, Gr 2, 0.5 mg/kg, D14, read-out: AUC0-last",35.4 ng·h/mL
same,AUC(0-inf),[3],165 ng·h/mL
same,Tmax,[3],0.8 h
same,half-life,[3],1.4 h
same,AUC(0-t),"female, dog, plasma, po, 1 mg/kg, female dogs, Gr 3, 1.0 mg/kg, D1, read-out: AUC0-24 h",176 ng·h/mL
same,AUC(0-t),"female, dog, plasma, po, 1 mg/kg, female dogs, Gr 3, 1.0 mg/kg, D1, read-out: AUC0-last",149 ng·h/mL
same,AUC(0-inf),[4],197 ng·h/mL
same,Tmax,[4],0.5 h
same,half-life,[4],1.6 h
same,AUC(0-t),"female, dog, plasma, po, 1 mg/kg, female dogs, Gr 3, 1.0 mg/kg, D14, read-out: AUC0-24 h",204 ng·h/mL
same,AUC(0-t),"female, dog, plasma, po, 1 mg/kg, female dogs, Gr 3, 1.0 mg/kg, D14, read-out: AUC0-last",169 ng·h/mL
same,AUC(0-inf),[5],3430 ng·h/mL
same,Tmax,[5],0.6 h
same,half-life,[5],4.3 h
same,AUC(0-t),"female, dog, plasma, po, 5 mg/kg, female dogs, Gr 4, 5.0 mg/kg, D1, read-out: AUC0-24 h",3370 ng·h/mL
same,AUC(0-t),"female, dog, plasma, po, 5 mg/kg, female dogs, Gr 4, 5.0 mg/kg, D1, read-out: AUC0-last",3370 ng·h/mL
same,AUC(0-inf),[6],6280 ng·h/mL
same,half-life,[6],5.7 h
same,AUC(0-t),"female, dog, plasma, po, 5 mg/kg, female dogs, Gr 4, 5.0 mg/kg, D14, read-out: AUC0-24 h",5950 ng·h/mL
same,AUC(0-t),"female, dog, plasma, po, 5 mg/kg, female dogs, Gr 4, 5.0 mg/kg, D14, read-out: AUC0-last",5950 ng·h/mL
same,AUC(0-inf),[7],67.8 ng·h/mL
same,Tmax,[7],0.7 h
same,half-life,[7],1.3 h
same,AUC(0-t),"male, dog, plasma, po, 0.5 mg/kg, male dogs, Gr 2, 0.5 mg/kg, D1, read-out: AUC0-24 h",59.7 ng·h/mL
same,AUC(0-t),"male, dog, plasma, po, 0.5 mg/kg, male dogs, Gr 2, 0.5 mg/kg, D1, read-out: AUC0-last",46.6 ng·h/mL
same,Cmax,"male, dog, plasma, po, 0.5 mg/kg, male dogs, Gr 2, 0.5 mg/kg, D1, read-out: Cmax",28.8 ng/mL
same,AUC(0-inf),[8],68.2 ng·h/mL
same,Tmax,[8],0.7 h
same,half-life,[8],1.3 h
same,AUC(0-t),"male, dog, plasma, po, 0.5 mg/kg, male dogs, Gr 2, 0.5 mg/kg, D14, read-out: AUC0-24 h",64.5 ng·h/mL
same,AUC(0-t),"male, dog, plasma, po, 0.5 mg/kg, male dogs, Gr 2, 0.5 mg/kg, D14, read-out: AUC0-last",53.2 ng·h/mL
same,Cmax,"male, dog, plasma, po, 0.5 mg/kg, male dogs, Gr 2, 0.5 mg/kg, D14, read-out: Cmax",29.4 ng/mL
same,AUC(0-inf),[9],121 ng·h/mL
same,Tmax,[9],0.9 h
same,half-life,[9],1.2 h
same,AUC(0-t),"male, dog, plasma, po, 1 mg/kg, male dogs, Gr 3, 1.0 mg/kg, D1, read-out: AUC0-24 h",120 ng·h/mL
same,AUC(0-t),"male, dog, plasma, po, 1 mg/kg, male dogs, Gr 3, 1.0 mg/kg, D1, read-out: AUC0-last",102 ng·h/mL
same,Cmax,"male, dog, plasma, po, 1 mg/kg, male dogs, Gr 3, 1.0 mg/kg, D1, read-out: Cmax",58.6 ng/mL
same,AUC(0-inf),[10],196 ng·h/mL
same,Tmax,[10],0.8 h
same,half-life,[10],1.8 h
same,AUC(0-t),"male, dog, plasma, po, 1 mg/kg, male dogs, Gr 3, 1.0 mg/kg, D14, read-out: AUC0-24 h",210 ng·h/mL
same,AUC(0-t),"male, dog, plasma, po, 1 mg/kg, male dogs, Gr 3, 1.0 mg/kg, D14, read-out: AUC0-last",172 ng·h/mL
same,Cmax,"male, dog, plasma, po, 1 mg/kg, male dogs, Gr 3, 1.0 mg/kg, D14, read-out: Cmax",67.6 ng/mL
same,AUC(0-inf),[11],3630 ng·h/mL
same,Tmax,[11],0.6 h
same,half-life,[11],4.7 h
same,AUC(0-t),"male, dog, plasma, po, 5 mg/kg, male dogs, Gr 4, 5.0 mg/kg, D1, read-out: AUC0-24 h",3520 ng·h/mL
same,AUC(0-t),"male, dog, plasma, po, 5 mg/kg, male dogs, Gr 4, 5.0 mg/kg, D1, read-out: AUC0-last",3520 ng·h/mL
same,Cmax,"male, dog, plasma, po, 5 mg/kg, male dogs, Gr 4, 5.0 mg/kg, D1, read-out: Cmax",693 ng/mL
same,AUC(0-inf),[12],6960 ng·h/mL
same,Tmax,[12],0.9 h
same,half-life,[12],6.5 h
same,AUC(0-t),"male, dog, plasma, po, 5 mg/kg, male dogs, Gr 4, 5.0 mg/kg, D14, read-out: AUC0-24 h",6400 ng·h/mL
same,AUC(0-t),"male, dog, plasma, po, 5 mg/kg, male dogs, Gr 4, 5.0 mg/kg, D14, read-out: AUC0-last",6400 ng·h/mL
same,Cmax,"male, dog, plasma, po, 5 mg/kg, male dogs, Gr 4, 5.0 mg/kg, D14, read-out: Cmax",716 ng/mL
